Data: patent US11135229B2, “Cat and dog sterilization by estrogenic compounds” (Insigna Inc., priority 2018, dated 2021)

Assays:
[1] = rat, in vivo, sc
Experimental: Hormonal measurement. Blood was collected from the tail vein or by cardiac puncture. The blood was centrifuged at 2000×g for 10 minutes; then serum was collected and preserved at −20° C. until further analyses. Serum estradiol concentrations were measured by using ELISA kits (DRG EIA4399) with a reportable range of 1.4-200 μg/ml.
A silicone capsule containing 17β-estradiol 3-benzoate (EB, Sigma E8515) was used as a device to elevate blood 17β-estradiol (E2) concentration to a supra-physiological level. Once implanted subcutaneously, the silicone capsule with EB (called eSpay) releases EB for an extended period of time. […] Therefore, EB that contained 300 μg of EB (herein EB300) was made by dissolving 300 μg of EB in 5 μl of sesame oil (Sigma S3547), and it was inserted into a silicone tube (Dow Corning 508-005) that was later closed with silicone sealant (Factor II, Inc. Medical Adhesive A-100). The capsule was kept at room temperature until use. The EB300 capsule was approximately 8 mm long and 2.16 mm in diameter. […]
The efficacy of the EB300 capsule as a device to elevate E2 levels in its recipient was tested after implanting it on the day of birth (post-natal day 0, PND 0). Serum and hypothalami were collected at PND 1, 2, 3, 4, 7, 10, 21, and 30, and E2 concentrations were measured.

[2] = test system: premature male and female rats; assay type: in vivo
[3] = premature male rats, capsule injected subcutaneously

## C[C@]12CC[C@@H]3c4ccc(OC(=O)c5ccccc5)cc4CC[C@H]3[C@@H]1CC[C@@H]2O [EB, 17β-Estradiol 3-benzoate]
[1]
  Period of sustained, high blood E2 level: about three weeks
[2]; premature female rats, capsule injected
  Female reproductive system: preventing the females from undergoing menstrual cycling and from producing ova
[2]; [3]
  Sterility of male rats: permanently sterile
  Testicular testosterone and sperm production: did not produce testosterone or sperm
[2]; rat, in vivo
  Death or sickness: no subject animal died or exhibited sickness
  Immune system, liver and kidney function examination: no clinical pathology
